We go through twelve compounds from ChEMBL document CHEMBL1201862, “PubChem BioAssay data set” (2004).

Some test systems named below: SK-OV-3; SK-MEL-2; A549; NCI-H23; HCC 2998; NCI-H226; Malme-3M; MCF7; SF-539; KM12; UACC-62; U-251; CAKI-1; TK-10; SK-MEL-5; OVCAR-3; T47D; MDA-N; SR.
Holding throughout (assay): NCI tumour cell line growth inhibition, 48 h

Each structure is given as a SMILES string.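 These data come from cells grown in 96-well plates and exposed to compound for 48 hours at five concentrations. GI50: concentration for 50% inhibition of growth.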 Active and inactive are the calls of the source. No stated cut-off is given here; in the data, active = GI50 up to about 1.1 µM and inactive = higher.

For `Cc1ccc(C)n1-c1ccccc1C1C=Cn2c(=O)oc3c(OC(C)C)c(OC(C)C)c(O)c1c32` (centres undefined), the GI50 with SK-OV-3 is > 100 µM (inactive); with SK-MEL-2, 7.33 µM (inactive); with A549 it was 16.5 µM (inactive); in the experiment with NCI-H23, 13.3 µM (inactive); in the experiment with HCC 2998 it was 8.57 µM (inactive); in the experiment on NCI-H226, 15.8 µM (inactive). Moreover, the GI50 in the experiment on Malme-3M is 33.7 µM (inactive); with MCF7, 16.6 µM (inactive); in the experiment with SF-539 it was > 100 µM (inactive); in the experiment on KM12 it was 8.11 µM (inactive); in the experiment on UACC-62, 22.8 µM (inactive); in the experiment on U-251 it was 25.8 µM (inactive). The GI50 in the experiment with CAKI-1 was 22 µM (inactive); in the experiment on TK-10 it was 55.2 µM (inactive); in the experiment with SK-MEL-5 it was 14.4 µM (inactive); with OVCAR-3, 27.5 µM (inactive).
Regarding `Cc1ccc(C2c3c(n(C)c(=O)n(C)c3=O)OC(N(C)C)(N(C)C)C2(F)F)cc1` (centres undefined), the GI50 in the experiment with SK-OV-3, in the experiment with SK-MEL-2, with A549, in the experiment with NCI-H23, with HCC 2998 and with NCI-H226 was > 100 µM (inactive) in each case. For the same compound, the GI50 in the experiment with MCF7, in the experiment on KM12, in the experiment with UACC-62, in the experiment on T47D, in the experiment on U-251 and with CAKI-1 was > 100 µM (inactive) each time. The GI50 with TK-10, in the experiment with SK-MEL-5 and with OVCAR-3 was > 100 µM (inactive) throughout.
As to `CSc1nc2c(c(=O)n1C)N=C(c1ccccc1)[C@H](C(CC(=O)c1ccccc1)c1ccccc1)C(c1ccccc1)N2` (some centres undefined), the GI50 with SK-MEL-2 is > 100 µM (inactive); in the experiment with A549, 31.8 µM (inactive); with NCI-H23 it was > 100 µM (inactive); in the experiment with HCC 2998 it was > 100 µM (inactive); with NCI-H226, > 100 µM (inactive); in the experiment on Malme-3M it was > 100 µM (inactive). Also, the GI50 in the experiment with MCF7 was 37.1 µM (inactive); with SF-539 it was > 100 µM (inactive); in the experiment with MDA-N, > 100 µM (inactive); in the experiment with KM12, 14.7 µM (inactive); in the experiment with UACC-62 it was > 100 µM (inactive); in the experiment with SR it was > 100 µM (inactive). Moreover, the GI50 in the experiment with U-251, in the experiment with CAKI-1, in the experiment with SK-MEL-5 and in the experiment on OVCAR-3 was > 100 µM (inactive) in each case.
On to `CC(C)[N+]([O-])(CCCNc1c2ccccc2nc2cccc([N+](=O)[O-])c12)C(C)C`, for which the GI50 is 0.262 µM (active) in the experiment with SK-OV-3; 0.234 µM (active) with SK-MEL-2; < 0.0282 µM (active) with A549; < 0.0206 µM (active) with NCI-H23; < 0.01 µM (active) in the experiment on HCC 2998; < 0.0456 µM (active) in the experiment with NCI-H226. Besides, the GI50 in the experiment with Malme-3M was < 0.041 µM (active); with MCF7, < 0.0272 µM (active); in the experiment with SF-539, 0.047 µM (active); in the experiment on MDA-N it was < 0.0342 µM (active); in the experiment on KM12, 0.065 µM (active); in the experiment with UACC-62, 0.148 µM (active). The GI50 with SR is 0.0142 µM (active); with U-251, < 0.0453 µM (active); in the experiment on CAKI-1 it was 0.492 µM (active); in the experiment on SK-MEL-5 it was < 0.0167 µM (active).
As for `CN(C(=O)C1CCCCCC1=O)c1ccccc1Cl` (centres undefined), the GI50 in the experiment with SK-OV-3, in the experiment on A549, in the experiment on NCI-H23, with NCI-H226, in the experiment on Malme-3M and with SF-539 was > 100 µM (inactive) throughout. In addition, the GI50 in the experiment with KM12, in the experiment with T47D, with U-251, in the experiment with CAKI-1, in the experiment on TK-10 and with SK-MEL-5 was > 100 µM (inactive) each time. Further, the GI50 in the experiment on OVCAR-3 is > 100 µM (inactive).
Consider `O=c1c2ccc(Br)cc2nc(-c2ccccc2)n1NC1OC(CO)C(O)C(O)C1O` (centres undefined), for which the GI50 with SK-OV-3, in the experiment on SK-MEL-2, in the experiment with A549, in the experiment on NCI-H23, with HCC 2998 and with NCI-H226 was > 100 µM (inactive) each time. Moreover, the GI50 in the experiment with Malme-3M, in the experiment with SF-539, in the experiment on KM12, in the experiment on UACC-62, in the experiment on U-251 and in the experiment with CAKI-1 was > 100 µM (inactive) each time. For the same compound, the GI50 in the experiment on TK-10, with SK-MEL-5 and with OVCAR-3 was > 100 µM (inactive) throughout.
For `CC1OC(=O)c2ccccc2NC1=O` (centres undefined), the GI50 in the experiment on SK-OV-3, in the experiment with SK-MEL-2, in the experiment with A549, in the experiment with NCI-H23, in the experiment with NCI-H226 and in the experiment with Malme-3M was > 100 µM (inactive) throughout. Also, the GI50 with SF-539, in the experiment on KM12, in the experiment on UACC-62, in the experiment on SR, in the experiment on U-251 and in the experiment on CAKI-1 was > 100 µM (inactive) in each case. In addition, the GI50 with TK-10, in the experiment with SK-MEL-5 and with OVCAR-3 was > 100 µM (inactive) in each case.
As for `COc1cc(OC)cc(Oc2nc3c(N)cc(C(F)(F)F)cc3nc2-c2ccccc2)c1`, the GI50 in the experiment with SK-OV-3 is 44.4 µM (inactive); with SK-MEL-2, 20 µM (inactive); in the experiment with NCI-H23, 92.7 µM (inactive); with HCC 2998, 24.3 µM (inactive); in the experiment on NCI-H226, 43.2 µM (inactive); in the experiment with MCF7 it was 8.93 µM (inactive). Moreover, the GI50 was 99.3 µM (inactive) in the experiment on SF-539; 13.8 µM (inactive) in the experiment with KM12; > 100 µM (inactive) with UACC-62; 3.14 µM (inactive) in the experiment on T47D; 11.1 µM (inactive) in the experiment on SR; 44.8 µM (inactive) in the experiment on U-251. Also, the GI50 with CAKI-1 was 26.9 µM (inactive); with TK-10, 60.5 µM (inactive); in the experiment with SK-MEL-5, 37.3 µM (inactive).
Take `O=C(/C=C/c1ccc2c(c1)OCO2)c1ccc(O)cc1`: the GI50 in the experiment with SK-OV-3 is 16.5 µM (inactive); in the experiment on SK-MEL-2, 16.9 µM (inactive); in the experiment on A549, 17.4 µM (inactive); in the experiment with NCI-H23 it was 15.5 µM (inactive); in the experiment on HCC 2998, 17.9 µM (inactive); in the experiment with NCI-H226, 18.5 µM (inactive). For the same compound, the GI50 with Malme-3M was 15.3 µM (inactive); in the experiment with MCF7 it was 11.1 µM (inactive); in the experiment on SF-539, 17.4 µM (inactive); in the experiment with MDA-N, 10.8 µM (inactive); with UACC-62 it was 16.8 µM (inactive); with SR it was 1.17 µM (inactive). Further, the GI50 in the experiment with U-251 was 13.8 µM (inactive); with CAKI-1, 15.2 µM (inactive); with TK-10, 18.7 µM (inactive); in the experiment on SK-MEL-5, 15.6 µM (inactive); with OVCAR-3, 15.5 µM (inactive).
`CN(/N=C/c1cccc2cccnc12)c1ccc(Cl)cc1[N+](=O)[O-]`: the GI50 in the experiment on SK-OV-3, in the experiment with SK-MEL-2, with A549, in the experiment with NCI-H23, in the experiment on HCC 2998 and in the experiment on NCI-H226 was > 100 µM (inactive) in each case. The GI50 with Malme-3M is > 100 µM (inactive); in the experiment with MCF7, 31.6 µM (inactive); with SF-539 it was > 100 µM (inactive); in the experiment with MDA-N it was > 100 µM (inactive); in the experiment with KM12, 96.8 µM (inactive); in the experiment with UACC-62 it was > 100 µM (inactive). The GI50 was > 100 µM (inactive) in the experiment on SR; > 100 µM (inactive) in the experiment on U-251; 45.2 µM (inactive) with CAKI-1; > 100 µM (inactive) in the experiment with TK-10; > 100 µM (inactive) with SK-MEL-5; > 100 µM (inactive) in the experiment with OVCAR-3.
Take `COc1ccc2c(c1)[n+]([O-])c(C(=O)CC(=O)C(=O)Nc1cccc(Cl)c1C)c(C)[n+]2[O-]`: the GI50 in the experiment on SK-OV-3, with SK-MEL-2, in the experiment on A549, with NCI-H23, with HCC 2998 and in the experiment on NCI-H226 was > 100 µM (inactive) throughout. The GI50 in the experiment with Malme-3M was > 100 µM (inactive); in the experiment on SF-539 it was > 100 µM (inactive); with KM12, > 100 µM (inactive); in the experiment with UACC-62 it was > 100 µM (inactive); in the experiment on SR, 34 µM (inactive); in the experiment with U-251 it was > 100 µM (inactive). Moreover, the GI50 in the experiment on CAKI-1 was > 100 µM (inactive); in the experiment with TK-10, > 100 µM (inactive); in the experiment on SK-MEL-5, > 100 µM (inactive); in the experiment on OVCAR-3, 27.3 µM (inactive).
As to `CC(=O)OC12C3C4C1C1C2C3C41OC(C)=O` (centres undefined), the GI50 with SK-OV-3, in the experiment on SK-MEL-2, in the experiment on A549, with NCI-H23, with HCC 2998 and in the experiment on NCI-H226 was > 100 µM (inactive) throughout. Also, the GI50 in the experiment with MCF7, in the experiment on SF-539, with KM12, in the experiment with UACC-62, in the experiment on T47D and with SR was > 100 µM (inactive) in each case. For the same compound, the GI50 in the experiment on U-251, with CAKI-1, with TK-10, with SK-MEL-5 and in the experiment with OVCAR-3 was > 100 µM (inactive) each time.
